Reference: ChEMBL document CHEMBL3600308, “Antiproliferative Trihydroxyalkylcyclohexenones from Pleiogynium timoriense” (J Nat Prod, 2015)
pIC50: −log10 of the molar value.

Test system: A2780
Test: Antiproliferative activity against drug-sensitive human A2780 cells assessed as inhibition of cell growth after 2 days by Alamar Blue assay
Assay type: functional, cell-based
Details: A2780, 48 h

pIC50	Structure (SMILES)
6.15	CCCCCCCC/C=C\CCCCCCCCC[C@]1(O)C(=O)C=C[C@H](O)[C@H]1O
6.10	CCCCCCCC/C=C\CCCCCCCCCCC[C@]1(O)C(=O)C=C[C@H](O)[C@H]1O
6.10	CCCCCCCC/C=C\CCCCCCC[C@]1(O)C(=O)C=C[C@H](O)[C@H]1O
